Data from US12168664B2, “Triazolopyrimidines, their preparation and use” (THE TRUSTEES OF COLUMBIA UNIVERSITY IN THE CITY OF NEW YORK, priority 2018, dated 2024).
pIC50: −log10 of the molar value.

Tests used:
PPARγ = PPARγ (Homo sapiens (Human), UniProt P37231); experiment: PPARγ agonist assay (HTRF, PPARγ-NCOR interaction); format: biochemical; conditions: read-out: PPAR γ assay (HTRF) for agonists of this nuclear receptor - IC50
Description: Significant safety issues are associated with the clinical use of PPARγ agonists (increased risk of death, myocardial infarction, stroke, congestive heart failure, hepatotoxicity, peripheral edema, weight gain and carcinogenicity^1-4). We wanted to characterize the compounds we identified in a pilot screen as potential PPARγ agonists. The PPARγ assay is based on agonist-sensitive interaction of the GST-tagged ligand-binding domain (LRD) of the nuclear receptor PPARγ with the biotinylated corepressor NCOR peptide (FIG. 8).
Assay reactions are performed in a final volume of 16 ul.
In well of the 384-well assay plate, mix 6 ul of PPARγ solution, 4 ul of NCOR2 solution and 4 μl of Rosi solution. Test compounds diluted from DMSO stocks to 4× assay concentration in 1×HTRF, 100 mM KF buffer may be dispensed to well instead of Rosi. Negative control wells contained DMSO solvent alone; positive control well contained […]. […] Two μl of detection mix was added per well. […] The plate was incubated for 16 hrs at 4° C.
HTRF signal was measured in the SpectraMax M5e Multimode Plate Reader (Molecular Device). Fluorescence was excited at 337 nm. […] The signal was expressed as the ratio of fluorescence intensity: Flu668/Flu620×10,000. […]

human RBP4 = human RBP4 (Homo sapiens (Human), UniProt P02753); experiment: SPA binding assay for RBP4 (scintillation proximity, 3H-retinol displacement); conditions: 10 nM 3H-retinol, 50 nM biotinylated RBP4
Experimental: Scintillation Proximity RBP4 Binding Assay
Untagged human RBP4 purified from the urine of tubular proteinuria patients was purchased from Fitzgerald Industries International. It was biotinylated using the EZ-Link Sulfo-NHS-LC-Biotinylation kit from Pierce following the manufacturer's recommendations. […] Nonspecific binding was determined in the presence of 20 μM of unlabeled retinol. The reaction mix was assembled in the dark under dim red light. The plates were sealed with clear tape (TopSeal-A: 96-well microplate, PerkinElmer), wrapped in the aluminum foil, and allowed to equilibrate 6 hours at room temperature followed by overnight incubation at +4° C. Radiocounts were measured using a TopCount NXT counter (Packard Instrument Company).
The compounds listed below were tested in two in vitro assays, RBP4 binding (SPA) and retinol-dependent RBP4-TTR interaction (HTRF) (Table 1).

CYP2D6 = CYP2D6 (Homo sapiens (Human), UniProt P10635); experiment: CYP inhibition, fluorescent, CYP2D6; format: in vitro ADME
CYP2D6, sequence (P10635 whole entry, species assumed): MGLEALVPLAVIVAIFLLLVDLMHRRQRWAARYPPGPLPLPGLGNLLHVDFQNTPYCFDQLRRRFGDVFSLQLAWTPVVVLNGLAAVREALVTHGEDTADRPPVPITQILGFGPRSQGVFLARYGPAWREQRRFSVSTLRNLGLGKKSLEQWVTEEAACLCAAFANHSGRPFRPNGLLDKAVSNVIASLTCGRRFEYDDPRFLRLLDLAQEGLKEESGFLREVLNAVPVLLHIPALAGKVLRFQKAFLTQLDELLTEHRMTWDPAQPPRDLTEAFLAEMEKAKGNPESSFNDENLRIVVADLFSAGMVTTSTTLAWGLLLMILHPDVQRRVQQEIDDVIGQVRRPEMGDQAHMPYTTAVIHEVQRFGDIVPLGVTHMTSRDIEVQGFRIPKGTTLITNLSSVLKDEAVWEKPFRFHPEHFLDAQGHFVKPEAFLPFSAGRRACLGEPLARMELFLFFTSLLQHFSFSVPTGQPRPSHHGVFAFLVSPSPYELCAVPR
Experimental: The compounds listed below were tested in various metabolic stability and CYP inhibition assays.

PPARγ, sequence (P37231 204-505): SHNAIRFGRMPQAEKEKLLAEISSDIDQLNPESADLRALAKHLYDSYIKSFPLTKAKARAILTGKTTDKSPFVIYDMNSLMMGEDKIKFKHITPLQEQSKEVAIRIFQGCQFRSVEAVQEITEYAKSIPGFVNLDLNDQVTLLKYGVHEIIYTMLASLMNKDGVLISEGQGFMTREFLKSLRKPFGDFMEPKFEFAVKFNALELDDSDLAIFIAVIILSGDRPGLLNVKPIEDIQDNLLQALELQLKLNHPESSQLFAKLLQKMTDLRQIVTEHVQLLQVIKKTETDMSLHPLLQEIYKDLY

**Q.** With `O=C(c1nc2ncccn2n1)N1C[C@H]2C[C@@H](c3ccccc3C(F)(F)F)C[C@H]2C1` [Compound 7a] as the compound, how does the pIC50 (PPARγ) read?
**A.** < 4.00

**Q.** And the pIC50 (human RBP4)?
**A.** 7.64

**Q.** And the pIC50 (CYP2D6)?
**A.** < 4.00
